Measurements as given in ChEMBL document CHEMBL4340534 (Bioorg Med Chem Lett, 2019).
≈ marks a conversion by molar mass, not a printed value. Calls of active or inactive are those of the source. The calls are words filed in the database; no cut-off is given here.

Experiments:
DNA gyrase = DNA gyrase (Escherichia coli, UniProt P0AES4+P0AES6); assay: Inhibition of Escherichia coli his-tagged DNA gyrase supercoiling activity using pBR322 DNA in presence of ATP incubated for 1 hr by H19 dye based high throughput DNA gyrase assay; assay type: protein-complex assay
Escherichia coli [1] = assay: Antibacterial activity against tolC deficient Escherichia coli Top10; assay type: functional
Escherichia coli [2] = assay: Antibacterial activity against tolC deficient Escherichia coli Top10 harboring GyrB E793K mutant; assay type: functional
Escherichia coli [3] = assay: Antibacterial activity against Escherichia coli 7623; assay type: functional
Escherichia coli [4] = assay: Antibacterial activity against tolC deficient Escherichia coli 7623; assay type: functional
Klebsiella pneumoniae = assay: Antibacterial activity against Klebsiella pneumoniae 1161486; assay type: functional
Acinetobacter baumannii = assay: Antibacterial activity against Acinetobacter baumannii BM4454; assay type: functional
Pseudomonas aeruginosa = assay: Antibacterial activity against Pseudomonas aeruginosa; assay type: functional
[5] = Cytotoxicity against mouse L5178Y cells (TK +/-) assessed as reduction in cell viability incubated for 72 hrs by Cell Titer-Glo assay
[6] = biological target: DNA gyrase (Klebsiella pneumoniae) (UniProt W1DID1+A0A080SQT2); assay: Inhibition of Klebsiella pneumoniae DNA gyrase assessed as increase in single and double strand DNA cleavage products; assay type: protein-complex assay
[7] = Inhibition of Escherichia coli DNA topoisomerase 4 using interlinked kDNA as substrate after 30 mins by ethidium bromide staining-based agarose gel electrophoresis method
Escherichia coli [8] = assay: Inhibition of Escherichia coli DNA topoisomerase 4 assessed as induction of enzyme-mediated DNA cleavage breaks
[9] = biological target: DNA topoisomerase 2-alpha (Homo sapiens, UniProt P11388); assay: Inhibition of human DNA topoisomerase 2 alpha using interlinked kDNA as substrate after 30 mins by ethidium bromide staining-based agarose gel electrophoresis method
Chain of DNA topoisomerase 2-alpha (P11388 whole entry): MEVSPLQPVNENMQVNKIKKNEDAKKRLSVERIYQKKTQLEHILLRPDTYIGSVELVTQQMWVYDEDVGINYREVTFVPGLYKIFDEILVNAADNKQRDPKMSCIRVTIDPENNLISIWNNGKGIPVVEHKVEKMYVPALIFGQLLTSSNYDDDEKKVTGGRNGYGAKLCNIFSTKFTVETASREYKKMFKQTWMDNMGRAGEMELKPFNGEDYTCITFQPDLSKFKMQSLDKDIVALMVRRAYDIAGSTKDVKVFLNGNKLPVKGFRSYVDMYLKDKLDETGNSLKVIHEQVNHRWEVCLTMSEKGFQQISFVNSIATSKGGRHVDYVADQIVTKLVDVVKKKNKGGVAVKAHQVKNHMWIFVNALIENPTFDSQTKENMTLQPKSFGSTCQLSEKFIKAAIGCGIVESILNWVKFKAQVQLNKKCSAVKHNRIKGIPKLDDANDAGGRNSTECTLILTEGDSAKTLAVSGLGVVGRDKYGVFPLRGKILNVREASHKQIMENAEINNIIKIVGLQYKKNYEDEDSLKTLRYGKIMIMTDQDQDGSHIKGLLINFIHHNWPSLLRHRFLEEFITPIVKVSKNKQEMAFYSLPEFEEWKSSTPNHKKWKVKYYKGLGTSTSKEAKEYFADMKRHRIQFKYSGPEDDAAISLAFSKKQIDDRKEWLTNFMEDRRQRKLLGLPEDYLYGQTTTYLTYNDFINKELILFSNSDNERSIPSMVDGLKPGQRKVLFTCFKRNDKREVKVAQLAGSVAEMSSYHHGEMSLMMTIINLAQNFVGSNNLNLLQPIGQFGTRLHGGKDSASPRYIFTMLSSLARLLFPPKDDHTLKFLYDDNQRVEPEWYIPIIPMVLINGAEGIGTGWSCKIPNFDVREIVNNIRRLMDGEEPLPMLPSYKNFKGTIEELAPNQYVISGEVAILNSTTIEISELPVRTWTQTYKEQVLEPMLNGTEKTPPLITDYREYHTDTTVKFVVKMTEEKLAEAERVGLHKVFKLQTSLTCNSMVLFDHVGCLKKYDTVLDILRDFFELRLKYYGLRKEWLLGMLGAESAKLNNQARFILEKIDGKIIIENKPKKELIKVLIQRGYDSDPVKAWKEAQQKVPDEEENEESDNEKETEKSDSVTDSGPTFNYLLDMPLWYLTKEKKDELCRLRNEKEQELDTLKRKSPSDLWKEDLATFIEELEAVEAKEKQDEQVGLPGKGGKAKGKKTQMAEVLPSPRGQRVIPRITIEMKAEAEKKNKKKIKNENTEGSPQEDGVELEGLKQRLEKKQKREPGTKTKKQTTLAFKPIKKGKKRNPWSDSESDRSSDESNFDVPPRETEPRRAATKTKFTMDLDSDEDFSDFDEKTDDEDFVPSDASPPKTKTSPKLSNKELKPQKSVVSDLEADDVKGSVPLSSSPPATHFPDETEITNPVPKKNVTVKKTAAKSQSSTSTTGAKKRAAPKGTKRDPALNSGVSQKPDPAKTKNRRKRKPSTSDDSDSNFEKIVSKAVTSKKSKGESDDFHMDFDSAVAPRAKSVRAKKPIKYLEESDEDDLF

[10] = biological target: Sodium channel protein type 5 subunit alpha (Homo sapiens, UniProt Q14524); assay: Inhibition of human NaV1.5 expressed in HEK293 cells assessed as decrease in sodium current amplitude at -120 mV holding potential by Qpatch assay; assay type: ADME, cell-based
Chain of Sodium channel protein type 5 subunit alpha (Q14524 whole entry): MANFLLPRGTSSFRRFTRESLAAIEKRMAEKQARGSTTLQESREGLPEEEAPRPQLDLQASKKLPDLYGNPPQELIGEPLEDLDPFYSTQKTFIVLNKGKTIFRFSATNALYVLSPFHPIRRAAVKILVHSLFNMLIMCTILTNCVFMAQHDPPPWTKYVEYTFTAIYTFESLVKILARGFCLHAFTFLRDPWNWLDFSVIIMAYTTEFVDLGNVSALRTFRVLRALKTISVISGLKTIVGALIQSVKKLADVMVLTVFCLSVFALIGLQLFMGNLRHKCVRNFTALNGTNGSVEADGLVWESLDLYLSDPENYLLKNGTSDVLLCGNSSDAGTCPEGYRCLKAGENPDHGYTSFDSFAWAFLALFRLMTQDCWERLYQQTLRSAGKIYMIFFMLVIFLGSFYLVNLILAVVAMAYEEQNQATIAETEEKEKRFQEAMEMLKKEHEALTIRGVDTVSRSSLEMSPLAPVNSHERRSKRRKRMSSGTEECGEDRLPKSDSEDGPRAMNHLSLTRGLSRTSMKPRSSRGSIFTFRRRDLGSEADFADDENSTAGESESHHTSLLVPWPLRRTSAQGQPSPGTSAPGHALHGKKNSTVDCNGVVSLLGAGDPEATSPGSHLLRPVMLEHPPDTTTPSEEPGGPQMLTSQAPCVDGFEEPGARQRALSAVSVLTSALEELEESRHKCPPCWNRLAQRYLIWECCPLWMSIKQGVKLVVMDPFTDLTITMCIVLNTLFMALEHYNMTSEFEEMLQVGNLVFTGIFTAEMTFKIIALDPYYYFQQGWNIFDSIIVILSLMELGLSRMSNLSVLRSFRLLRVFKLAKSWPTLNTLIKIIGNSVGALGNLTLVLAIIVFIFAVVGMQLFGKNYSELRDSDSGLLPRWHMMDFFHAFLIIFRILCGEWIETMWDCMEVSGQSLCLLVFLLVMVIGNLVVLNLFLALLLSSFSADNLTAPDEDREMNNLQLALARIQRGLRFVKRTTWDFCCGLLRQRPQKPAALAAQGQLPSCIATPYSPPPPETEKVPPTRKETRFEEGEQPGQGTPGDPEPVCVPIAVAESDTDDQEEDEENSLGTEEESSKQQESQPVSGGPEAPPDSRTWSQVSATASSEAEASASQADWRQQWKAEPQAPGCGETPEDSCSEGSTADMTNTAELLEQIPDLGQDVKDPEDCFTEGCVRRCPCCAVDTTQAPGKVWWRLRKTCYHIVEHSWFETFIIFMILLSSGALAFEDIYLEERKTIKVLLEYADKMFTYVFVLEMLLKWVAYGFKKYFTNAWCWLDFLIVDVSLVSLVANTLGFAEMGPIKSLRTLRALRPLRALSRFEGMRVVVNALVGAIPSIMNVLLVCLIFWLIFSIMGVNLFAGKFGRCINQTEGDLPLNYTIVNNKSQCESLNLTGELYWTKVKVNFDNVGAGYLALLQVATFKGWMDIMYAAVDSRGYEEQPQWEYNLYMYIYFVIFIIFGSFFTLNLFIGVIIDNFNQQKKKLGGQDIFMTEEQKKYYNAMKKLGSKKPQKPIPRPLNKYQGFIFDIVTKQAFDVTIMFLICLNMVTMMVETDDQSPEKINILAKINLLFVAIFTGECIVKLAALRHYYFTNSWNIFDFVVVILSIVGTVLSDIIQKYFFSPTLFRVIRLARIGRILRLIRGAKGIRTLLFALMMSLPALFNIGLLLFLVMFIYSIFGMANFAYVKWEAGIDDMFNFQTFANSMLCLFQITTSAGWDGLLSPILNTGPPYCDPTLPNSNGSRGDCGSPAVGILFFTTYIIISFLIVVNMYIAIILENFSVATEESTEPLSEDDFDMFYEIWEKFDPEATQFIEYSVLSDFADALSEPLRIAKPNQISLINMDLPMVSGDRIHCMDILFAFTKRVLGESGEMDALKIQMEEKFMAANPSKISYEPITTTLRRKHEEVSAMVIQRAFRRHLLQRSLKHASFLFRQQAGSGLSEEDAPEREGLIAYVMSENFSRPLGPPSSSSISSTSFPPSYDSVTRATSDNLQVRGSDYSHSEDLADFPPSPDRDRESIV

Structure (SMILES)	IC50 (DNA gyrase) [nM]	MIC (Escherichia coli [1]) [µg/mL]	MIC (Escherichia coli [2]) [µg/mL]	MIC (Escherichia coli [3]) [µg/mL]	MIC (Escherichia coli [4]) [µg/mL]	MIC (Klebsiella pneumoniae) [µg/mL]	MIC (Acinetobacter baumannii) [µg/mL]	MIC (Pseudomonas aeruginosa) [µg/mL]	CC50 at 72 h ([5]; l5178y) [µg/mL]	inhibition [6]	IC50 [7] [µM]	inhibition (Escherichia coli [8])	IC50 [9] [µM]	IC50 [10] [µM]	CC50 at 72 h ([5]; L5178Y cells (TK +/-)) [µg/mL]
NC[C@H](Oc1noc2ccc(-c3ccccc3Cl)cc12)c1ccccc1	160	≤ 0.125	2 (≈ 5.48 µM)	8 to 16 (≈ 21.9 to 43.9 µM)	≤ 0.125	≥ 128	8 (≈ 21.9 µM)	≥ 128	10 (≈ 27.4 µM)	Active	90	Active	210	22	–
Cn1nc(O[C@@H](CN)c2ccccc2)c2cc(-c3ccccc3Cl)ccc21	5000	2 (≈ 5.29 µM)	2 (≈ 5.29 µM)	> 128	2 (≈ 5.29 µM)	> 128	64 (≈ 169 µM)	–	–	–	–	–	–	–	–
NC[C@H](Oc1n[nH]c2ccc(-c3ccccc3Cl)cc12)c1ccccc1	1600	2 (≈ 5.5 µM)	2 (≈ 5.5 µM)	32 (≈ 87.9 µM)	2 (≈ 5.5 µM)	32 (≈ 87.9 µM)	32 (≈ 87.9 µM)	–	–	–	–	–	–	–	3 (≈ 8.25 µM)
NC[C@H](Nc1nccc2ccc(-c3ccccc3Cl)cc12)c1ccccc1	10000	2 (≈ 5.35 µM)	2 (≈ 5.35 µM)	64 (≈ 171 µM)	2 (≈ 5.35 µM)	32 (≈ 85.6 µM)	32 (≈ 85.6 µM)	–	–	–	–	–	–	–	3 (≈ 8.02 µM)
NC[C@H](Oc1noc2ncc(-c3ccccc3Cl)cc12)c1ccccc1	500	1 (≈ 2.73 µM)	16 (≈ 43.7 µM)	64 (≈ 175 µM)	1 (≈ 2.73 µM)	–	64 (≈ 175 µM)	–	–	–	–	–	–	24	20 (≈ 54.7 µM)
NC[C@H](Oc1noc2ccc(-c3ccccc3Cl)nc12)c1ccccc1	1600	8 (≈ 21.9 µM)	16 (≈ 43.7 µM)	> 128	4 (≈ 10.9 µM)	–	> 128	–	5 (≈ 13.7 µM)	–	–	–	–	16	–
Cc1sc(-c2ccccc2Cl)cc1C(=O)N[C@@H](CN)c1ccccc1	40	≤ 0.125	4 (≈ 10.8 µM)	8 (≈ 21.6 µM)	≤ 0.125	32 (≈ 86.3 µM)	4 (≈ 10.8 µM)	–	5 (≈ 13.5 µM)	–	–	–	–	13	–
NCC(Oc1noc2ccc(-c3ccccc3Cl)cc12)c1ccccn1 (configuration not stated)	500	0.25 (≈ 0.683 µM)	8 (≈ 21.9 µM)	64 (≈ 175 µM)	0.25 (≈ 0.683 µM)	–	32 (≈ 87.5 µM)	–	–	–	–	–	–	–	3 (≈ 8.2 µM)
N=C(N)NC[C@H](Oc1noc2ccc(-c3ccccc3Cl)cc12)c1ccccc1	160	0.25 (≈ 0.614 µM)	0.5 (≈ 1.23 µM)	8 (≈ 19.7 µM)	0.25 (≈ 0.614 µM)	16 (≈ 39.3 µM)	4 (≈ 9.83 µM)	16 (≈ 39.3 µM)	11 (≈ 27 µM)	–	–	–	–	–	–
Cn1nc(NC(CN)c2ccccc2)c2cc(-c3ccccc3Cl)ccc21 (configuration not stated)	7900	4 (≈ 10.6 µM)	4 (≈ 10.6 µM)	> 128	4 (≈ 10.6 µM)	> 128	128 (≈ 340 µM)	–	–	–	–	–	–	–	5 (≈ 13.3 µM)
NCC(Nc1n[nH]c2ccc(-c3ccccc3Cl)cc12)c1ccccc1 (configuration not stated)	3200	4 (≈ 11 µM)	4 (≈ 11 µM)	128 (≈ 353 µM)	4 (≈ 11 µM)	64 (≈ 176 µM)	64 (≈ 176 µM)	–	–	–	–	–	–	–	5 (≈ 13.8 µM)
NC[C@@H](c1ccccc1)n1cnc2c(-c3ccccc3Cl)csc2c1=O	2000	2 (≈ 5.24 µM)	16 (≈ 41.9 µM)	> 128	2 to 4 (≈ 5.24 to 10.5 µM)	> 128	> 128	–	–	–	–	–	–	–	16 (≈ 41.9 µM)
